Here are results for four compounds from patent US9468209B2, “Method for eradicating weeds with derivatives of 3-acetyl-5-sec-butyl-4-hydroxy-3-pyrrolin-2-one” (priority 2012, dated 2016).

What all share (assay): Leaf piece damage test
Holding throughout (type): in vivo
What all share (design): key: 4: The leaf completely dead; 3: Two third of the leaf withered; 2: One half of the leaf withered; 1: Only edge of the leaf withered; 0: Not damage at all
Holding throughout (conditions): 50 μg/mL, 4 days

In test [1] the test system is Barbyardgrass Echinochloa crusgalli. The method in brief:
(§1)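 Leaf pieces 5 mm across, taken from each weed's second leaf, receive three applications of compound at 50 μg/mL in dilute aqueous methanol. Each treatment uses five pieces. Four days on, damage levels are recorded and combined into a weighted index scaled to 100.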

Test [2] deals with Big Bristlegass. The method, boiled down:
as §1

Test [3] deals with Common polypogon. The method in brief:
as §1

Test [4] deals with Conyza canademsis. The method, boiled down: as §1
Test [5] has as its system Crisium setosum. The method in brief: as §1
The test system of test [6] is Cyperus rotundus. The method in brief: as §1
Test [7] has as its system Eclipta prostrata. The method, boiled down:
as §1

Test [8] deals with Fimbristylis miliacea. The method, boiled down:
as §1

The test system of test [9] is Galeopsis bifida. The method in brief:
as §1

For test [10], the system named is Goose grass. The method, boiled down: as §1
The test system of test [11] is Japanese alopecurus. The method, boiled down: as §1
Test [12] has as its system Japanese false bindweed (Calystegia hederacea). The method in brief:
as §1

The test system of test [13] is Lapsana apogonoides. The method, boiled down:
as §1

For test [14], the system named is Leptochloa chinensis. The method, boiled down: as §1
Test [15] concerns Oxalis corniculata. The method, boiled down:
as §1

Test [16] relates to Perilla frutescens. The method in brief: as §1
Test [17] deals with Plantago asiatica. The method, boiled down: as §1
In test [18] the test system is Redroot pigweed (Amaramthus retroflexus). The method in brief: as §1
For test [19], the system named is Rumex dentatus. The method, boiled down: as §1
Test [20] concerns Rumex japonicus. The method, boiled down:
as §1

Test [21] concerns Sonchus oleraceus. The method, boiled down:
as §1

Test [22] has as its system Veronica didyma. The method, boiled down:
as §1

For the compound `CCCC(Cl)C1NC(=O)C(C(C)=O)=C1O` (stereo not shown) [Compound 40], the Damage level came out at 4 in [1]; 3 in test [2]; 3 in [3]; 3 in test [4]; 3 in test [5]; 2 in test [6]. The Damage level in test [7] was 3; in test [8], 3; in [9] it was 3; in [10], 4; in test [11], 3; in test [12], 3. Moreover, the Damage level in test [13] is 3; in test [14] it was 4; in test [15], 4; in [16], 2; in test [17], 3; in [18] it was 3. Further, the Damage level in test [19] is 2; in test [20], 2; in test [21], 3; in test [22], 2.
With `CCC(C)C1NC(=O)C(C(=O)CCc2cc(Cl)cc(Cl)c2)=C1O` (stereo not shown) [Compound 48], the Damage level is on record as 4 in test [1]; 3 in [2]; 4 in test [3]; 4 in test [4]; 4 in [5]; 2 in test [6]. For the same compound, the Damage level amounted to 4 in test [7]; 3 in test [8]; 2 in test [9]; 3 in test [10]; 4 in test [11]; 4 in [12]. Also, the Damage level in test [13] turned out to be 4; in test [14], 4; in test [15] it was 4; in [16] it was 2; in test [17] it was 2; in test [18], 2. Moreover, the Damage level in test [19] is 3; in test [20] it was 2; in test [21], 4; in test [22] it was 3.
In the case of `CCCCCCC1NC(=O)C(C(C)=O)=C1O` (stereo not shown) [Compound 16], the Damage level in test [1] was 4; in test [2], 3; in test [3], 3; in test [4], 3; in test [5], 3; in test [6], 2. For the same compound, the Damage level in [7] is 3; in test [8] it was 3; in test [9], 2; in test [10] it was 3; in test [11], 3; in test [12], 4. The Damage level in test [13] worked out at 3; in test [14], 4; in [15], 4; in [16], 2; in test [17], 2; in test [18], 3. Besides, the Damage level in [19] is reported as 2; in test [20], 2; in test [21], 3; in [22], 2.
Regarding `CCC(C)C1NC(=O)C(C(=O)CCF)=C1O` (stereo not shown) [Compound 44], the Damage level came to 4 in test [1]; 2 in [2]; 4 in test [3]; 4 in [4]; 3 in [5]; 2 in test [6]. Further, the Damage level in test [7] is given as 4; in test [8], 2; in test [9], 3; in test [10], 3; in [11], 4; in test [12], 4. For the same compound, the Damage level in test [13] is listed as 3; in test [14], 4; in [15], 4; in [16], 3; in test [17] it was 3; in test [18], 2. Also, the Damage level in test [19], in test [20], in [21] and in test [22] was 3 in each case.
